These results are taken from US20210380606A1, “5-AZAINDAZOLE DERIVATIVES AS ADENOSINE RECEPTOR ANTAGONISTS” (Merck Patent GmbH, priority 2018, published 2021).

Read-outs that look alike come from different tables or passages of the source.

One assay deals with T1, human A2A receptors (Homo sapiens, UniProt P29274).
T1 construct: expressed in transfected cells; host or cells: HEK293
The assay is described as follows: Functional human A2A receptor activity, recombinant HEK293 cells, cAMP (HTRF). The class given is cell-based. The protocol: (§1) The functional activities of human A2A and A2B receptors were determined by quantification of cAMP, being the second messenger for adenosine receptors.
(§2) After a 15 min incubation, HTRF reagents (cAMP dynamic 2, Cis Bio) were added and the cellular cAMP levels were determined using the ENVISION (Perkin Elmer) plate reader.

The next assay concerns the target T2, human A2B receptors (Homo sapiens, UniProt P29275).
T2 construct: expressed in transfected cells; host or cells: HEK293
T2 sequence (P29275 1-332): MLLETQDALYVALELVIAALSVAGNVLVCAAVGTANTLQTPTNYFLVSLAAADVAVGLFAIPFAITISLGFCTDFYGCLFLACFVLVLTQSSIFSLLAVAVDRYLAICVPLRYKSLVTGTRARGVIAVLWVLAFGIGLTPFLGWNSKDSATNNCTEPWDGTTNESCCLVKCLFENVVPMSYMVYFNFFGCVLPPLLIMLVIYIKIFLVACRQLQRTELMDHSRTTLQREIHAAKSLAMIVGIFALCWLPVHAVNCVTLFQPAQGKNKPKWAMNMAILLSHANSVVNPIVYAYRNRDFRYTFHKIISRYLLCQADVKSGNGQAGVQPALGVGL
The assay is described as follows: Functional human A2B receptor activity, recombinant HEK293 cells, cAMP (HTRF). The class given is cell-based. The method, then:
as §1, §2

Setting [1] is: read-out: Functional A2A receptor activity, HEK293, cAMP, IC50.
Setting [2] is: read-out: Functional A2B receptor activity HEK293, cAMP IC50.

T1 sequence (P29274 whole entry): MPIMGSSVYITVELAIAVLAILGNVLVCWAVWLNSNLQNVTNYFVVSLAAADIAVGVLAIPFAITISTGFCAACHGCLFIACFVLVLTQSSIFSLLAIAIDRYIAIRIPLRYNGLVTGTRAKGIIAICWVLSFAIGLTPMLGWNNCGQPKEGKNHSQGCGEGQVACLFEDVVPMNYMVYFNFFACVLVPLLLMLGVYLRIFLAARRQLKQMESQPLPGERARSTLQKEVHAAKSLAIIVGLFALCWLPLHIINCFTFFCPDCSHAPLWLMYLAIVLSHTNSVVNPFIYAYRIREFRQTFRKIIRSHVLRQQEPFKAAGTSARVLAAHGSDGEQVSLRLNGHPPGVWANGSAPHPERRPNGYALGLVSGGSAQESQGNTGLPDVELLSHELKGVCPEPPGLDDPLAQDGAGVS

For the compound `CCN(C(=O)c1cc2c(cn1)c(-c1coc3ccccc13)nn2CC(F)(F)F)C(C)C` [Compound 234, 3-(benzofuran-3-yl)-N-ethyl-N-isopropyl-1-(2,2,2-trifluoroethyl)-pyrazolo[4,3-c]pyridine-6-carboxamide], the IC50 was below 100 nM on human A2A receptors (read-out: A2A (Category)) and below 1000 nM at human A2B receptors (read-out: A2B (Category)).

With `O=C(c1cc2c(cn1)c(-c1ccc3ccccn13)nn2CC(F)(F)F)N1CCCCCC1` [Compound 52, Azepan-1-yl-[3-indolizin-3-yl-1-(2,2,2-trifluoro-ethyl)-1H-pyrazolo[4,3-c]pyridin-6-yl]-methanone], the IC50 at human A2A receptors (read-out: A2A (Category)) is below 100 nM; at human A2B receptors (read-out: A2B (Category)), below 1000 nM.

Regarding `CS(=O)(=O)Cn1nc(-c2cnc3ccc(F)cn23)c2cnc(C(=O)N3CCCCCC3)cc21` [Compound 20, Azepan-1-yl-[3-(6-fluoro-imidazo[1,2-a]pyridin-3-yl)-1-methanesulfonylmethyl-1H-pyrazolo[4,3-c]pyridin-6-yl]-methanone], the IC50 on human A2A receptors (read-out: A2A (Category)) and on human A2B receptors (read-out: A2B (Category)) was below 100 nM each time.

In the case of `O=C(c1cc2c(cn1)c(-c1coc3ccc(F)cc13)nn2CC(F)(F)F)N1CCOCC(O)C1` (centres unmarked) [Compound 118, [3-(5-fluorobenzofuran-3-yl)-1-(2,2,2-trifluoroethyl)pyrazolo[4,3-c]pyridin-6-yl]-(6-hydroxy-1,4-oxazepan-4-yl)methanone], the IC50 at human A2A receptors (read-out: A2A (Category)) and on human A2B receptors (read-out: A2B (Category)) was below 100 nM in each case.

`COCC1CCCN1C(=O)c1cc2c(cn1)c(-c1coc3ccccc13)nn2CC(F)(F)F` (centres unmarked) [Compound 215, [3-Benzofuran-3-yl-1-(2,2,2-trifluoro-ethyl)-1H-pyrazolo[4,3-c]pyridin-6-yl]-(2-methoxymethyl-pyrrolidin-1-yl)-methanone]: the results for the IC50 on human A2A receptors (read-out: A2A (Category)) and on human A2B receptors (read-out: A2B (Category)) were below 100 nM and below 1000 nM, respectively.

Turning to `O=C(c1cc2c(cn1)c(-c1cnc3ncc(F)cn13)nn2CC(F)(F)F)N1CCCCCC1` [Compound 50, Azepan-1-yl-[3-(6-fluoro-imidazo[1,2-a]pyrimidin-3-yl)-1-(2,2,2-trifluoro-ethyl)-1H-pyrazolo[4,3-c]pyridin-6-yl]-methanone], the IC50 on human A2A receptors (read-out: A2A (Category)) was below 100 nM; on human A2B receptors (read-out: A2B (Category)), below 1000 nM.

`CC1(O)CCN(C(=O)c2cc3c(cn2)c(-c2coc4ccccc24)nn3CC(F)(F)F)CC1` [Compound 208, [3-Benzofuran-3-yl-1-(2,2,2-trifluoro-ethyl)-1H-pyrazolo[4,3-c]pyridin-6-yl]-(4-hydroxy-4-methyl-piperidin-1-yl)-methanone]: the IC50 at human A2A receptors (read-out: A2A (Category)) and on human A2B receptors (read-out: A2B (Category)) was below 100 nM each time.

Take `O=C(c1cc2c(cn1)c(-c1cnn3ccccc13)nn2CC(F)(F)F)N1CCC(O)CC1` [Compound 114, (4-hydroxy-1-piperidyl)-[3-pyrazolo[1,5-a]pyridin-3-yl-1-(2,2,2-trifluoroethyl)pyrazolo[4,3-c]pyridin-6-yl]methanone]: the IC50 at human A2A receptors (read-out: A2A (Category)) and on human A2B receptors (read-out: A2B (Category)) was below 100 nM each time.

For `O=C(c1ccc2c(-c3cnc4ccc(F)cn34)nn(CC(F)(F)F)c2c1)N1CCCCCC1` [analogue to No. 44, reference compound], the figures for the IC50 at human A2A receptors (setting [1]) and on human A2B receptors (setting [2]) were below 100 nM and below 1000 nM, respectively.

In the case of `O=C(c1cc2c(cn1)c(-c1cnn3ccccc13)nn2CC(F)(F)F)N1CC2CCC(C1)O2` [Compound 99, (8-Oxa-3-aza-bicyclo[3.2.1]oct-3-yl)-[3-pyrazolo[1,5-a]pyridin-3-yl-1-(2,2,2-trifluoro-ethyl)-1H-pyrazolo[4,3-c]pyridin-6-yl]-methanone], the IC50 on human A2A receptors (read-out: A2A (Category)) was below 100 nM; at human A2B receptors (read-out: A2B (Category)) it was below 1000 nM.

On to `O=C(c1cc2c(cn1)c(-c1cnc3c(F)cc(F)cn13)nn2CC(F)(F)F)N1CC2CC3CC(C2)CC1C3` [Compound 169, (4-Aza-tricyclo[4.3.1.1*3,8*]undec-4-yl)-[3-(6,8-difluoro-imidazo[1,2-a]pyridin-3-yl)-1-(2,2,2-trifluoro-ethyl)-1H-pyrazolo[4,3-c]pyridin-6-yl]-methanone], for which the IC50 at human A2A receptors (read-out: A2A (Category)) and at human A2B receptors (read-out: A2B (Category)) was below 100 nM each time.

Regarding `CS(=O)(=O)Cn1nc(-c2coc3ccccc23)c2cnc(C(=O)N3CCC(F)(F)CC3)cc21` [Compound 33, (3-Benzofuran-3-yl-1-methanesulfonylmethyl-1H-pyrazolo[4,3-c]pyridin-6-yl)-(4,4-difluoro-piperidin-1-yl)-methanone], the IC50 is below 100 nM on human A2A receptors (read-out: A2A (Category)) and below 1000 nM at human A2B receptors (read-out: A2B (Category)).

With `O=C(c1cc2c(cn1)c(-c1cnc3c(F)cc(F)cn13)nn2CC(F)(F)F)N1CCC2(CC1)COC2` [Compound 166, [3-(6,8-Difluoro-imidazo[1,2-a]pyridin-3-yl)-1-(2,2,2-trifluoro-ethyl)-1H-pyrazolo[4,3-c]pyridin-6-yl]-(2-oxa-7-aza-spiro[3.5]non-7-yl)-methanone], the IC50 at human A2A receptors (read-out: A2A (Category)) was below 100 nM; on human A2B receptors (read-out: A2B (Category)), below 1000 nM.

In the case of `CC1(O)C2CCC1CN(C(=O)c1cc3c(cn1)c(-c1cnc4c(F)cc(F)cn14)nn3CC(F)(F)F)C2` (stereo not drawn) [Compound 162, [3-(6,8-Difluoro-imidazo[1,2-a]pyridin-3-yl)-1-(2,2,2-trifluoro-ethyl)-1H-pyrazolo[4,3-c]pyridin-6-yl]-(8-endo-hydroxy-8-exo-methyl-3-aza-bicyclo[3.2.1]oct-3-yl)-methanone], the figures for the IC50 at human A2A receptors (read-out: A2A (Category)) and on human A2B receptors (read-out: A2B (Category)) were below 100 nM and below 1000 nM, respectively.

Turning to `CS(=O)(=O)Cn1nc(-c2cnn3ccccc23)c2cnc(C(=O)N3CC4CCC(C4)C3)cc21` [Compound 18, (3-Aza-bicyclo[3.2.1]oct-3-yl)-(1-methanesulfonylmethyl-3-pyrazolo[1,5-a]pyridin-3-yl-1H-pyrazolo[4,3-c]pyridin-6-yl)-methanone], the IC50 at human A2A receptors (read-out: A2A (Category)) was below 100 nM; on human A2B receptors (read-out: A2B (Category)), below 1000 nM.

Turning to `O=C(c1cc2c(cn1)c(-c1cnc3c(F)cc(F)cn13)nn2CC(F)(F)F)N1CCCCCO1` [Compound 191, [3-(6,8-Difluoro-imidazo[1,2-a]pyridin-3-yl)-1-(2,2,2-trifluoro-ethyl)-1H-pyrazolo[4,3-c]pyridin-6-yl]-[1,2]oxazepan-2-yl-methanone], the IC50 is below 100 nM at human A2A receptors (read-out: A2A (Category)) and below 1000 nM at human A2B receptors (read-out: A2B (Category)).

With `O=C(c1ccc2c(-c3cnc4c(F)cc(F)cn34)nn(CC(F)(F)F)c2c1)N1CCCCCC1` [analogue to No. 60, reference compound], the values for the IC50 at human A2A receptors (setting [1]) and on human A2B receptors (setting [2]) were below 100 nM and below 1000 nM, respectively.

Turning to `O=C(c1cc2c(cn1)c(-c1coc3ccccc13)nn2CC(F)(F)F)N(C1CC1)C1CC1` [Compound 232, 3-(benzofuran-3-yl)-N,N-di(cyclopropyl)-1-(2,2,2-trifluoroethyl)-pyrazolo[4,3-c]pyridine-6-carboxamide], the results for the IC50 on human A2A receptors (read-out: A2A (Category)) and on human A2B receptors (read-out: A2B (Category)) were below 100 nM and below 1000 nM, respectively.

With `O=C(c1cc2c(cn1)c(-c1coc3ccccc13)nn2CC(F)F)N1C2CCC1CC(O)C2` (stereo not drawn) [Compound 220, [3-Benzofuran-3-yl-1-(2,2-difluoro-ethyl)-1H-pyrazolo[4,3-c]pyridin-6-yl]-(3-endo-hydroxy-8-exo-methyl-3-aza-bicyclo[3.2.1]oct-3-yl)-methanone], the IC50 was below 100 nM at human A2A receptors (read-out: A2A (Category)) and below 1000 nM at human A2B receptors (read-out: A2B (Category)).

As to `O=C(c1cc2c(cn1)c(-c1coc3ccccc13)nn2CC(F)(F)F)N1CCC(O)CC1` [Compound 207, [3-Benzofuran-3-yl-1-(2,2,2-trifluoro-ethyl)-1H-pyrazolo[4,3-c]pyridin-6-yl]-(4-hydroxy-piperidin-1-yl)-methanone], the IC50 at human A2A receptors (read-out: A2A (Category)) and on human A2B receptors (read-out: A2B (Category)) was below 100 nM each time.

Turning to `O=C(c1cc2c(cn1)c(-c1cnc3ccccn13)nn2CC(F)(F)F)N1[C@@H]2CC[C@H]1C[C@@H](O)C2` [Compound 87, [3-(imidazo[1,2-a]pyridin-3-yl)-1-(2,2,2-trifluoroethyl)pyrazolo[4,3-c]pyridin-6-yl]-(3-endo-hydroxy-8-azabicyclo[3.2.1]octan-8-yl)methanone], the IC50 on human A2A receptors (read-out: A2A (Category)) was below 100 nM; on human A2B receptors (read-out: A2B (Category)) it was below 1000 nM.

Consider `CC1(C)CC(O)CCN1C(=O)c1cc2c(cn1)c(-c1coc3ccccc13)nn2CS(C)(=O)=O` (centres unmarked) [Compound 35, (3-Benzofuran-3-yl-1-methanesulfonylmethyl-1H-pyrazolo[4,3-c]pyridin-6-yl)-(4-hydroxy-2,2 dimethyl-piperidin-1-yl)-methanone], for which the results for the IC50 on human A2A receptors (read-out: A2A (Category)) and at human A2B receptors (read-out: A2B (Category)) were below 100 nM and below 1000 nM, respectively.

In the case of `O=C(c1cc2c(cn1)c(-c1coc3ccccc13)nn2CC(F)(F)F)N1CC2CCC(C1)O2` [Compound 100, [3-Benzofuran-3-yl-1-(2,2,2-trifluoro-ethyl)-1H-pyrazolo[4,3-c]pyridin-6-yl]-(8-oxa-3-aza-bicyclo[3.2.1]oct-3-yl)-methanone], the IC50 on human A2A receptors (read-out: A2A (Category)) and on human A2B receptors (read-out: A2B (Category)) was below 100 nM throughout.

Regarding `O=C(c1cc2c(cn1)c(-c1cnn3ccccc13)nn2CC(F)(F)F)N1CCCCCC1` [Compound 89, Azepan-1-yl-[3-pyrazolo[1,5-a]pyridin-3-yl-1-(2,2,2-trifluoro-ethyl)-1H-pyrazolo[4,3-c]pyridin-6-yl]-methanone hydrochoride], the IC50 on human A2A receptors (read-out: A2A (Category)) and at human A2B receptors (read-out: A2B (Category)) was below 100 nM throughout.

As for `O=C(c1cc2c(cn1)c(-c1coc3ccc(F)cc13)nn2CC(F)(F)F)N1CCC(O)CC1` [Compound 115, [3-(5-fluorobenzofuran-3-yl)-1-(2,2,2-trifluoroethyl)pyrazolo[4,3-c]pyridin-6-yl]-(4-hydroxy-1-piperidyl)methanone], the IC50 at human A2A receptors (read-out: A2A (Category)) and at human A2B receptors (read-out: A2B (Category)) was below 100 nM throughout.
